Results reported in patent publication US10450306B2, “Isoxazole analogs as FXR agonists and methods of use thereof” (Enanta Pharmaceuticals, Inc., priority 2016, dated 2019).

Target: T1, human FXR (NR1H4) (Homo sapiens, UniProt Q96RI1)
T1 construct: host or cells: CHO (Chinese hamster ovary) reporter cells
T1 sequence (Q96RI1 1-486): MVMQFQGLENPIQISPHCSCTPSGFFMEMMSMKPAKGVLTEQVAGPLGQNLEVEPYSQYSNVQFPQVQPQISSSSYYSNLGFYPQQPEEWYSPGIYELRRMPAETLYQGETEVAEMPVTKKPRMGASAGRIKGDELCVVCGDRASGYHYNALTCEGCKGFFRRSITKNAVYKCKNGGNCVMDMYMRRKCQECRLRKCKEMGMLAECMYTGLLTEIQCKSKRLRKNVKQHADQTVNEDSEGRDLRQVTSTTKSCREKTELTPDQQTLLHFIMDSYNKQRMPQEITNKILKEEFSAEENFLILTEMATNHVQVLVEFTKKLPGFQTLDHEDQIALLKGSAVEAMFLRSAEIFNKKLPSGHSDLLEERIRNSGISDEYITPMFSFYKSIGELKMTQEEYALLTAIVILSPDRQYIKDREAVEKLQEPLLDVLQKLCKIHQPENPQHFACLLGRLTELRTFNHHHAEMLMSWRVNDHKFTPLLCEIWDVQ
Assay: Human FXR (NR1H4) Assay: Gal4 promoter driven luciferase reporter transactivation in CHO cells (Indigo Bioscience kit IB00601); as to Efficacy (%): efficacy normalized to CDCA set as 100%
Format: cell-based
Settings: for Emax: CHO, read-out: Efficacy (%); for EC50: Human FXR (NR1H4) reporter assay, potency ranges
Method in brief: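 Luminescence read-out after 22 h exposure quantified FXR transactivation; compounds were tested at several doses, 0.2% DMSO, in CHO cells engineered with human NR1H4 and a luciferase gene linked to an FXR-responsive promoter.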

SMILES | Emax | EC50
O=C(NS(=O)(=O)N1CCCCC1)c1cc(F)c2nc(N3CCC(NCc4c(-c5c(Cl)cccc5Cl)noc4C4CC4)CC3)sc2c1 [Example 400-8] | 79% | 0.001 to 0.1 µM
O=C(NS(=O)(=O)C1CC1)c1cc(F)c2nc(N3CCC(NCc4c(-c5c(Cl)cccc5Cl)noc4C4CC4)CC3)sc2c1 [Example 400-9] | 37.5% | 0.1 to 1 µM
CC1(S(=O)(=O)NC(=O)c2cc(F)c3nc(N4CCC(NCc5c(-c6c(Cl)cccc6Cl)noc5C5CC5)CC4)sc3c2)CC1 [Example 400-10] | 68% | 0.1 to 1 µM
Cc1cc2nc(N3C4CCC3CC(NCc3c(-c5c(Cl)cccc5Cl)noc3C3CC3)C4)sc2cc1C(=O)NS(=O)(=O)C1(C)CC1 (stereo not drawn) [Example 400-11] | 79.3% | < 0.001 µM
Cc1cc2nc(N3C4CCC3CC(NCc3c(-c5c(Cl)cccc5Cl)noc3C3CC3)C4)sc2cc1C(=O)NS(=O)(=O)N1CCCCC1 (stereo not drawn) [Example 400-12] | 115% | < 0.001 µM
Cc1c(C(=O)NS(=O)(=O)C2(C)CC2)ccc2nc(N3C4CCC3CC(NCc3c(-c5c(Cl)cccc5Cl)noc3C3CC3)C4)sc12 (stereo not drawn) [Example 400-13] | 83.3% | 0.001 to 0.1 µM
Cc1c(C(=O)NS(=O)(=O)N2CCCCC2)ccc2nc(N3C4CCC3CC(NCc3c(-c5c(Cl)cccc5Cl)noc3C3CC3)C4)sc12 (stereo not drawn) [Example 400-14] | 119% | < 0.001 µM
CCOc1cc(C(=O)NS(=O)(=O)C2(C)CC2)cc2sc(N3C4CCC3CC(NCc3c(-c5c(Cl)cccc5Cl)noc3C3CC3)C4)nc12 (stereo not drawn) [Example 400-15] | 104% | < 0.001 µM
CCOc1cc(C(=O)NS(=O)(=O)N2CCCCC2)cc2sc(N3C4CCC3CC(NCc3c(-c5c(Cl)cccc5Cl)noc3C3CC3)C4)nc12 (stereo not drawn) [Example 400-16] | 87.3% | < 0.001 µM
CC(C)Oc1cc(C(=O)NS(=O)(=O)C2(C)CC2)cc2sc(N3C4CCC3CC(NCc3c(-c5c(Cl)cccc5Cl)noc3C3CC3)C4)nc12 (stereo not drawn) [Example 400-18] | 98% | < 0.001 µM
CC(C)Oc1cc(C(=O)NS(=O)(=O)N2CCCCC2)cc2sc(N3C4CCC3CC(NCc3c(-c5c(Cl)cccc5Cl)noc3C3CC3)C4)nc12 (stereo not drawn) [Example 400-20] | 43.6% | 0.001 to 0.1 µM
CC1(S(=O)(=O)NC(=O)c2cc3sc(N4C5CCC4CC(NCc4c(-c6c(Cl)cccc6Cl)noc4C4CC4)C5)nc3cc2F)CC1 (stereo not drawn) [Example 400-22] | 83.2% | < 0.001 µM
O=C(NS(=O)(=O)N1CCCCC1)c1cc2sc(N3C4CCC3CC(NCc3c(-c5c(Cl)cccc5Cl)noc3C3CC3)C4)nc2cc1F (stereo not drawn) [Example 400-24] | 88.2% | < 0.001 µM
O=C(NS(=O)(=O)C1CC1)c1cnc2nc(N3C4CCC3CC(NCc3c(-c5c(Cl)cccc5Cl)noc3C3CC3)C4)sc2n1 (stereo not drawn) [Example 400-25] | 72% | 0.001 to 0.1 µM
CC1(S(=O)(=O)NC(=O)c2cnc3nc(N4C5CCC4CC(NCc4c(-c6c(Cl)cccc6Cl)noc4C4CC4)C5)sc3n2)CC1 (stereo not drawn) [Example 400-26] | 97.2% | < 0.001 µM
Cc1cc(C(=O)NS(=O)(=O)C2(C)CC2)cc2sc(N3C4CCC3CC(NCc3c(-c5c(Cl)cccc5Cl)noc3C3CC3)C4)nc12 (stereo not drawn) [Example 400-29] | 118% | < 0.001 µM
CC1(S(=O)(=O)NC(=O)c2cc3sc(N4C5CCC4CC(NCc4c(-c6c(Cl)cccc6Cl)noc4C4CC4)C5)nc3cc2-c2ccccc2)CC1 (stereo not drawn) [Example 400-32] | 116% | < 0.001 µM
CC1(S(=O)(=O)NC(=O)c2cc3sc(N4C5CCC4CC(NCc4c(-c6c(Cl)cccc6Cl)noc4C4CC4)C5)nc3c3ccccc23)CC1 (stereo not drawn) [Example 400-33] | 91% | < 0.001 µM
CC1(S(=O)(=O)NC(=O)c2cc(C3CC3)c3nc(N4C5CCC4CC(NCc4c(-c6c(Cl)cccc6Cl)noc4C4CC4)C5)sc3c2)CC1 (stereo not drawn) [Example 400-35] | 117% | 0.001 to 0.1 µM
O=C(NS(=O)(=O)C1CC1)c1ccc(N2C3CCC2CC(NCc2c(-c4c(Cl)cccc4Cl)noc2C2CC2)C3)nc1 (stereo not drawn) [Example 400-37] | 82.5% | 0.001 to 0.1 µM
O=C(O)c1ccc2nc(N3C4CCC3CC(NCc3c(-c5ccccc5OC(F)(F)F)noc3C3CC3)C4)sc2c1 (stereo not drawn) [Example 402] | 112% | 0.001 to 0.1 µM
COC(=O)c1cc(F)c2nc(N3C4CCC3CC(NCc3c(-c5ccccc5OC(F)(F)F)noc3C3CC3)C4)sc2c1 (stereo not drawn) [Example 403] | 61% | 0.001 to 0.1 µM
O=C(O)c1cc(F)c2nc(N3C4CCC3CC(NCc3c(-c5ccccc5OC(F)(F)F)noc3C3CC3)C4)sc2c1 (stereo not drawn) [Example 404] | 88% | 0.001 to 0.1 µM
COC(=O)c1cc(OC(C)C)c2nc(N3C4CCC3CC(NCc3c(-c5ccccc5OC(F)(F)F)noc3C3CC3)C4)sc2c1 (stereo not drawn) [Example 413] | 118% | 0.001 to 0.1 µM

SMILES | Emax | EC50
CC(C)Oc1cc(C(=O)O)cc2sc(N3C4CCC3CC(NCc3c(-c5ccccc5OC(F)(F)F)noc3C3CC3)C4)nc12 (stereo not drawn) [Example 414] | 121% | < 0.001 µM
O=C(O)c1ccc2nc(N3C4CCC3CC(NCc3c(-c5ccccc5OC(F)(F)F)noc3C3CC3)C4)ccc2c1 (stereo not drawn) [Example 514] | 100% | 0.001 to 0.1 µM
O=C(O)c1ccc(N2C3CCC2CC(NCc2c(-c4ccccc4OC(F)(F)F)noc2C2CC2)C3)nc1 (stereo not drawn) [Example 597] | 83.5% | 0.001 to 0.1 µM
O=C(O)c1ccc2nc(N3CCC(NCc4c(-c5ccccc5OC(F)(F)F)noc4C4CC4)CC3)sc2c1 [Example 638] | 107% | 0.1 to 1 µM
COC(=O)c1cc(OC(C)C)c2nc(N3CCC(NCc4c(-c5ccccc5OC(F)(F)F)noc4C4CC4)CC3)sc2c1 [Example 639] | 13% | 0.1 to 1 µM
CC(C)Oc1cc(C(=O)O)cc2sc(N3CCC(NCc4c(-c5ccccc5OC(F)(F)F)noc4C4CC4)CC3)nc12 [Example 640] | 92.3% | 0.001 to 0.1 µM
COC(=O)c1cc(F)c2nc(N3CCC(NCc4c(-c5ccccc5OC(F)(F)F)noc4C4CC4)CC3)sc2c1 [Example 641] | 40% | 0.1 to 1 µM
O=C(O)c1cc(F)c2nc(N3CCC(NCc4c(-c5ccccc5OC(F)(F)F)noc4C4CC4)CC3)sc2c1 [Example 642] | 85.3% | 0.1 to 1 µM
COC(=O)c1cc(C2CC2)c2nc(N3C4CCC3CC(NCc3c(-c5ccccc5OC(F)(F)F)noc3C3CC3)C4)sc2c1 (stereo not drawn) [Example 643] | 52% | 0.001 to 0.1 µM
O=C(O)c1cc(C2CC2)c2nc(N3C4CCC3CC(NCc3c(-c5ccccc5OC(F)(F)F)noc3C3CC3)C4)sc2c1 (stereo not drawn) [Example 644] | 94.5% | < 0.001 µM
O=C(O)c1cc(F)c(N2C3CCC2CC(NCc2c(-c4ccccc4OC(F)(F)F)noc2C2CC2)C3)c(F)c1 (stereo not drawn) [Example 646] | 105% | 0.001 to 0.1 µM
O=C(NS(=O)(=O)C1CC1)c1cnc2nc(N3C4CCC3CC(NCc3c(-c5ccccc5OC(F)(F)F)noc3C3CC3)C4)sc2n1 (stereo not drawn) [Example 695] | 75% | 0.001 to 0.1 µM
CCOC(=O)c1ccc2nc(N3C4CCC3CC(NCc3c(-c5ccccc5OC(F)(F)F)noc3C3CC3)C4)sc2c1 (stereo not drawn) [Example 696] | 59.1% | 0.001 to 0.1 µM
CC1(S(=O)(=O)NC(=O)c2ccc3nc(N4C5CCC4CC(NCc4c(-c6ccccc6OC(F)(F)F)noc4C4CC4)C5)sc3c2)CC1 (stereo not drawn) [Example 702] | 113% | 0.001 to 0.1 µM
O=C(NS(=O)(=O)C1CC1)c1ccc2nc(N3CCC(NCc4c(-c5ccccc5OC(F)(F)F)noc4C4CC4)CC3)sc2c1 [Example 791] | 63% | > 1 µM
CC1(S(=O)(=O)NC(=O)c2ccc3nc(N4CCC(NCc5c(-c6ccccc6OC(F)(F)F)noc5C5CC5)CC4)sc3c2)CC1 [Example 900-1] | 80.5% | 0.1 to 1 µM
CC1(S(=O)(=O)NC(=O)c2cc(F)c3nc(N4C5CCC4CC(NCc4c(-c6ccccc6OC(F)(F)F)noc4C4CC4)C5)sc3c2)CC1 (stereo not drawn) [Example 900-2] | 109% | 0.001 to 0.1 µM
O=C(NS(=O)(=O)C1CC1)c1cc(F)c2nc(N3CCC(NCc4c(-c5ccccc5OC(F)(F)F)noc4C4CC4)CC3)sc2c1 [Example 900-3] | 44.8% | 0.1 to 1 µM
CC1(S(=O)(=O)NC(=O)c2cc(F)c3nc(N4CCC(NCc5c(-c6ccccc6OC(F)(F)F)noc5C5CC5)CC4)sc3c2)CC1 [Example 900-4] | 84.8% | > 1 µM
CC(C)Oc1cc(C(=O)NS(=O)(=O)C2CC2)cc2sc(N3CCC(NCc4c(-c5ccccc5OC(F)(F)F)noc4C4CC4)CC3)nc12 [Example 900-5] | 68.5% | 0.1 to 1 µM
CC(C)Oc1cc(C(=O)NS(=O)(=O)C2(C)CC2)cc2sc(N3CCC(NCc4c(-c5ccccc5OC(F)(F)F)noc4C4CC4)CC3)nc12 [Example 900-6] | 112% | 0.001 to 0.1 µM
CC1(S(=O)(=O)NC(=O)c2cc(C3CC3)c3nc(N4C5CCC4CC(NCc4c(-c6ccccc6OC(F)(F)F)noc4C4CC4)C5)sc3c2)CC1 (stereo not drawn) [Example 900-9] | 122% | < 0.001 µM
O=C(NS(=O)(=O)C1CC1)c1cc(F)c(N2C3CCC2CC(NCc2c(-c4ccccc4OC(F)(F)F)noc2C2CC2)C3)c(F)c1 (stereo not drawn) [Example 900-11] | 70.5% | 0.001 to 0.1 µM
CC1(S(=O)(=O)NC(=O)c2cc(F)c(N3C4CCC3CC(NCc3c(-c5ccccc5OC(F)(F)F)noc3C3CC3)C4)c(F)c2)CC1 (stereo not drawn) [Example 900-12] | 67% | 0.001 to 0.1 µM
